This note sets out measurements from ChEMBL document CHEMBL1909046, “DrugMatrix in vitro pharmacology data”.

5-hydroxytryptamine receptor 2B, sequence (P41595 whole entry): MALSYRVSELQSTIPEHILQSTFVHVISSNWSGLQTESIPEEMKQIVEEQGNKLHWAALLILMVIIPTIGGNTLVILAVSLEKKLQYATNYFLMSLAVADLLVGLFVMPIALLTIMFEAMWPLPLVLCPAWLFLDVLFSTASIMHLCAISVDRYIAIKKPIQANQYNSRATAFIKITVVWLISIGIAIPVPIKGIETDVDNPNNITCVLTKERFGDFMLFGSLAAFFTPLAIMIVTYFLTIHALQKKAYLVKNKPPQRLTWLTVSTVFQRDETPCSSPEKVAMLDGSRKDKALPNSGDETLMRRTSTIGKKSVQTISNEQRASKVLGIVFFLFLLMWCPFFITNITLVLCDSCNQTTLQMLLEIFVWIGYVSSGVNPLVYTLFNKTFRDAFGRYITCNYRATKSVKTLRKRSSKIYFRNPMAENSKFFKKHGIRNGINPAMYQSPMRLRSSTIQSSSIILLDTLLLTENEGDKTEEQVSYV

One series deals with T1, Cytochrome P450 2A6 (Homo sapiens, UniProt P11509).
T1 sequence (P11509 whole entry): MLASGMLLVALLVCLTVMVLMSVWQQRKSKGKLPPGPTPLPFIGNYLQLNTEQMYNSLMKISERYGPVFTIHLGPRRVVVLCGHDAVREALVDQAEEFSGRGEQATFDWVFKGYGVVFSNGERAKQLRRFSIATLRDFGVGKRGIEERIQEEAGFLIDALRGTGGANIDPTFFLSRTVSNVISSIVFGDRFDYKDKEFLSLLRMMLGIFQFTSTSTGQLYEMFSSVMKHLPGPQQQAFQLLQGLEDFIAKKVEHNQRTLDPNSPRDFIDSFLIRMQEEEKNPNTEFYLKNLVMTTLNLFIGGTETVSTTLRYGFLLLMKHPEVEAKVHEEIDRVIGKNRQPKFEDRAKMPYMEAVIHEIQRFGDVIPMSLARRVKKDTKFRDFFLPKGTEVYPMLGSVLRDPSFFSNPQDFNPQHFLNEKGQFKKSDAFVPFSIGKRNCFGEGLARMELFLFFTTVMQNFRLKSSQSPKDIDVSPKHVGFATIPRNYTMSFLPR
Conditions: bti-tn-5b1-4.
A word on the IC50: it is the midpoint of a concentration-inhibition curve. In general, Ki refers to a dissociation constant, usually derived from enzyme kinetics or from competition with a known ligand. Turning to `COc1cc(N)nc2[nH]c(-c3ccc(F)cc3)c(-c3ccncc3)c12`, the IC50 entry is “Not Active” and the Ki entry is reported as “Not Active”.
On to `CNS(=O)(=O)Cc1ccc2[nH]cc(CCN(C)C)c2c1`, for which the IC50 entry is reported as “Not Active” and the Ki entry was “Not Active”.
For the molecule `CCCc1nn(C)c2c(=O)[nH]c(-c3cc(S(=O)(=O)N4CCN(C)CC4)ccc3OCC)nc12`, the IC50 entry is “Not Active” and the Ki entry is on record as “Not Active”.
As to `COc1ccc(/C=C/C(=O)Nc2ccccc2C(=O)O)cc1OC`, the IC50 result is reported as “Not Active” and the Ki result is given as “Not Active”.
As for `CCOC(N)=O`, the IC50 entry is reported as “Not Active” and the Ki entry is on record as “Not Active”.
In the case of `CC(=O)Nc1nnc(S(N)(=O)=O)s1` [ACETAZOLAMIDE], the 50% inhibitory concentration (IC50) result was “Not Active” and the Ki result was “Not Active”.
Consider `CC1=C(CC(=O)O)c2cc(F)ccc2/C1=C\c1ccc(S(C)(=O)=O)cc1` [EXISULIND], for which the IC50 result was “Not Active” and the Ki result was “Not Active”.
As to `CC(C)OC(=O)C(C)(C)Oc1ccc(C(=O)c2ccc(Cl)cc2)cc1` [FENOFIBRATE], the IC50 entry is reported as “Not Active” and the Ki result was “Not Active”.
With `OCCN1CCN(CCCN2c3ccccc3Sc3ccc(C(F)(F)F)cc32)CC1` [FLUPHENAZINE], the IC50 entry is given as “Not Active” and the Ki entry is on record as “Not Active”.

In another series the target is T2, D(4) dopamine receptor (Homo sapiens, UniProt P21917).
T2 sequence (P21917 whole entry): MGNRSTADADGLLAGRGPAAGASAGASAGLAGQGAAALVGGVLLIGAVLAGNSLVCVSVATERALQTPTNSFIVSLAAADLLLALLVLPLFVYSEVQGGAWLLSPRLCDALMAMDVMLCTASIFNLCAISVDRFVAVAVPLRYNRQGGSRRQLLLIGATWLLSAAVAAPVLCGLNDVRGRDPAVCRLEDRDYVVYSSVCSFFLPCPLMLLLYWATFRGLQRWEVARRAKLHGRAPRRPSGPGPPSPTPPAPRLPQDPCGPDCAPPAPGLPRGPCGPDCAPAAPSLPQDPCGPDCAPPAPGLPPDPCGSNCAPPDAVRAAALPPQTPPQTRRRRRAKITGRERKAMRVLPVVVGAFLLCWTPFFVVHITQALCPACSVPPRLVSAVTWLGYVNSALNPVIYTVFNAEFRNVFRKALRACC
Put plainly: DRUGMATRIX: Dopamine D4.2 radioligand binding (ligand: [3H] Spiperone). It counts as cell membranes, CHO-K1, Membrane. Conditions: Not Active = under 50% inhibition at 10 µM; read-out: IC50.
In the case of `OCCN1CCN(CCCN2c3ccccc3Sc3ccc(C(F)(F)F)cc32)CC1` [FLUPHENAZINE], the IC50 amounted to 5880 nM.

The series is the same for the next values; noted with them: Not Active = under 50% inhibition at 10 µM; read-out: Ki.
Take `OCCN1CCN(CCCN2c3ccccc3Sc3ccc(C(F)(F)F)cc32)CC1` [FLUPHENAZINE]: the Ki was 2060 nM.

The series is the same for the next values; noted with them: cho-k1; Not Active = under 50% inhibition at 10 µM.
Regarding `COc1cc(N)nc2[nH]c(-c3ccc(F)cc3)c(-c3ccncc3)c12`, the IC50 result is recorded as “Not Active”.
On to `CNS(=O)(=O)Cc1ccc2[nH]cc(CCN(C)C)c2c1`, for which the IC50 entry is reported as “Not Active”.
In the case of `CCCc1nn(C)c2c(=O)[nH]c(-c3cc(S(=O)(=O)N4CCN(C)CC4)ccc3OCC)nc12`, the IC50 entry was “Not Active”.
Take `COc1ccc(/C=C/C(=O)Nc2ccccc2C(=O)O)cc1OC`: the IC50 entry is “Not Active”.
Consider `CCOC(N)=O`, for which the IC50 result is listed as “Not Active”.
Consider `CC(=O)Nc1nnc(S(N)(=O)=O)s1` [ACETAZOLAMIDE], for which the IC50 entry is given as “Not Active”.
`CC1=C(CC(=O)O)c2cc(F)ccc2/C1=C\c1ccc(S(C)(=O)=O)cc1` [EXISULIND]: the IC50 result was “Not Active”.
Consider `CC(C)OC(=O)C(C)(C)Oc1ccc(C(=O)c2ccc(Cl)cc2)cc1` [FENOFIBRATE], for which the IC50 entry is listed as “Not Active”.

The next series addresses T3, Type-2 angiotensin II receptor (Homo sapiens, UniProt P50052).
T3 sequence (P50052 whole entry): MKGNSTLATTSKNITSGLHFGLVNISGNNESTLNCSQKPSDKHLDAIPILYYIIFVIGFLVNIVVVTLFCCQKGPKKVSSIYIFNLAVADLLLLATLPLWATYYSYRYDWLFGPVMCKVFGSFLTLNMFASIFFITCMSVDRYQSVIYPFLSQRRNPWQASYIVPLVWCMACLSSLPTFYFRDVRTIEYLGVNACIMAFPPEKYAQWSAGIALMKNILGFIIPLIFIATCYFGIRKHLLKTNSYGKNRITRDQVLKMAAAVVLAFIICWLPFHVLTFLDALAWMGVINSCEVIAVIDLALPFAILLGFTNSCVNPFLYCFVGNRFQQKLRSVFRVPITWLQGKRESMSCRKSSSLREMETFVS
It counts as cell-based. The following applies: cho-k1.
Consider `COc1cc(N)nc2[nH]c(-c3ccc(F)cc3)c(-c3ccncc3)c12`, for which the IC50 result was “Not Active”.
For `CNS(=O)(=O)Cc1ccc2[nH]cc(CCN(C)C)c2c1`, the IC50 entry is listed as “Not Active”.
For the molecule `CCCc1nn(C)c2c(=O)[nH]c(-c3cc(S(=O)(=O)N4CCN(C)CC4)ccc3OCC)nc12`, the IC50 result is recorded as “Not Active”.
Take `COc1ccc(/C=C/C(=O)Nc2ccccc2C(=O)O)cc1OC`: the IC50 entry is listed as “Not Active”.
As for `CCOC(N)=O`, the IC50 result is reported as “Not Active”.
Still for that read-out and setting: to `CC(=O)Nc1nnc(S(N)(=O)=O)s1` [ACETAZOLAMIDE] belongs “Not Active”.
Take `CC1=C(CC(=O)O)c2cc(F)ccc2/C1=C\c1ccc(S(C)(=O)=O)cc1` [EXISULIND]: the IC50 entry is listed as “Not Active”.
In the case of `CC(C)OC(=O)C(C)(C)Oc1ccc(C(=O)c2ccc(Cl)cc2)cc1` [FENOFIBRATE], the IC50 result was “Not Active”.
The same measure, in the same setting: to `OCCN1CCN(CCCN2c3ccccc3Sc3ccc(C(F)(F)F)cc32)CC1` [FLUPHENAZINE] belongs “Not Active”.

The target of another series is C-C chemokine receptor type 5 (Homo sapiens, UniProt P51681). It counts as cell membranes, Membrane. Conditions: hek293. Note: in other assays of this panel Not Active means under 50% inhibition at 10 µM.
C-C chemokine receptor type 5, sequence (P51681 whole entry): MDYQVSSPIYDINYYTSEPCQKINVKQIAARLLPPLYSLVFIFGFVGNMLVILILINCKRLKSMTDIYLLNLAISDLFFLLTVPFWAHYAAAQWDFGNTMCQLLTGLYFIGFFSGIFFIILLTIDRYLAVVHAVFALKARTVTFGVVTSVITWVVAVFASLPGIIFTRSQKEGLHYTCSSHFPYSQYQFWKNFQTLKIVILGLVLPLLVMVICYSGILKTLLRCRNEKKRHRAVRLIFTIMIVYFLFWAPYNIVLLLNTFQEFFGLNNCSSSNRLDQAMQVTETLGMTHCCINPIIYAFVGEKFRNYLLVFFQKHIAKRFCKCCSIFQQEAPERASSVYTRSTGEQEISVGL
Regarding `COc1cc(N)nc2[nH]c(-c3ccc(F)cc3)c(-c3ccncc3)c12`, the IC50 entry is given as “Not Active”.
Same read-out and setting: to `CNS(=O)(=O)Cc1ccc2[nH]cc(CCN(C)C)c2c1` belongs “Not Active”; to `CCCc1nn(C)c2c(=O)[nH]c(-c3cc(S(=O)(=O)N4CCN(C)CC4)ccc3OCC)nc12`, “Not Active”.
Take `COc1ccc(/C=C/C(=O)Nc2ccccc2C(=O)O)cc1OC`: the IC50 entry is recorded as “Not Active”.
Consider `CCOC(N)=O`, for which the IC50 result was “Not Active”.
Regarding `CC(=O)Nc1nnc(S(N)(=O)=O)s1` [ACETAZOLAMIDE], the IC50 result is recorded as “Not Active”.
Turning to `CC1=C(CC(=O)O)c2cc(F)ccc2/C1=C\c1ccc(S(C)(=O)=O)cc1` [EXISULIND], the IC50 entry is on record as “Not Active”.
Still for that read-out and setting: the value for `CC(C)OC(=O)C(C)(C)Oc1ccc(C(=O)c2ccc(Cl)cc2)cc1` [FENOFIBRATE] was “Not Active”; that for `OCCN1CCN(CCCN2c3ccccc3Sc3ccc(C(F)(F)F)cc32)CC1` [FLUPHENAZINE] was “Not Active”.

Tested on in the next series: not listed separately
The experiment in a line: DRUGMATRIX: Calcium Channel Type L, Dihydropyridine radioligand binding (ligand: [3H] Nitrendipine). Type of series: cell membranes, Rattus norvegicus, Wistar, Cerebral cortex, Membrane. Conditions: Not Active = under 50% inhibition at 10 µM.
Consider `COc1cc(N)nc2[nH]c(-c3ccc(F)cc3)c(-c3ccncc3)c12`, for which the IC50 result was “Not Active” and the Ki entry is reported as “Not Active”.
In the case of `CNS(=O)(=O)Cc1ccc2[nH]cc(CCN(C)C)c2c1`, the IC50 entry was “Not Active” and the Ki result is given as “Not Active”.
In the case of `CCCc1nn(C)c2c(=O)[nH]c(-c3cc(S(=O)(=O)N4CCN(C)CC4)ccc3OCC)nc12`, the IC50 result is “Not Active” and the Ki entry is listed as “Not Active”.
Consider `COc1ccc(/C=C/C(=O)Nc2ccccc2C(=O)O)cc1OC`, for which the IC50 entry is recorded as “Not Active” and the Ki entry is given as “Not Active”.
In the case of `CCOC(N)=O`, the IC50 entry is reported as “Not Active” and the Ki entry is on record as “Not Active”.
As to `CC1=C(CC(=O)O)c2cc(F)ccc2/C1=C\c1ccc(S(C)(=O)=O)cc1` [EXISULIND], the IC50 entry is listed as “Not Active” and the Ki entry is reported as “Not Active”.

Tested on in a further series: not listed separately
The experiment in a line: DRUGMATRIX: Calcium Channel Type L, Phenylalkylamine radioligand binding (ligand: [3H] (-)-Desmethoxyverapamil (D-888)). It counts as cell membranes, Rattus norvegicus, Wistar, Brain, Membrane. The following applies: Not Active = under 50% inhibition at 10 µM.
With `COc1cc(N)nc2[nH]c(-c3ccc(F)cc3)c(-c3ccncc3)c12`, the half-inhibitory concentration (IC50) entry is listed as “Not Active” and the Ki result is reported as “Not Active”.
`CNS(=O)(=O)Cc1ccc2[nH]cc(CCN(C)C)c2c1`: the IC50 entry was “Not Active” and the Ki entry is recorded as “Not Active”.
With `CCCc1nn(C)c2c(=O)[nH]c(-c3cc(S(=O)(=O)N4CCN(C)CC4)ccc3OCC)nc12`, the IC50 entry is on record as “Not Active” and the Ki result was “Not Active”.
Regarding `COc1ccc(/C=C/C(=O)Nc2ccccc2C(=O)O)cc1OC`, the IC50 result was “Not Active” and the Ki entry was “Not Active”.
Regarding `CCOC(N)=O`, the IC50 result is reported as “Not Active” and the inhibition constant (Ki) result is on record as “Not Active”.
Consider `CC1=C(CC(=O)O)c2cc(F)ccc2/C1=C\c1ccc(S(C)(=O)=O)cc1` [EXISULIND], for which the IC50 result is reported as “Not Active” and the Ki entry is “Not Active”.

A further series has as its target 5-hydroxytryptamine receptor 2B (Homo sapiens, UniProt P41595). It counts as cell membranes, CHO-K1, Membrane. Conditions: cho-k1. Note: in other assays of this panel Not Active means under 50% inhibition at 10 µM.
With `COc1cc(N)nc2[nH]c(-c3ccc(F)cc3)c(-c3ccncc3)c12`, the IC50 result is recorded as “Not Active”.
On the same count and under the same terms, to `CNS(=O)(=O)Cc1ccc2[nH]cc(CCN(C)C)c2c1` belongs “Not Active”; to `CCCc1nn(C)c2c(=O)[nH]c(-c3cc(S(=O)(=O)N4CCN(C)CC4)ccc3OCC)nc12`, “Not Active”; to `COc1ccc(/C=C/C(=O)Nc2ccccc2C(=O)O)cc1OC`, “Not Active”.
Take `CCOC(N)=O`: the IC50 result is recorded as “Not Active”.
Consider `CC(=O)Nc1nnc(S(N)(=O)=O)s1` [ACETAZOLAMIDE], for which the IC50 entry is recorded as “Not Active”.
Turning to `CC1=C(CC(=O)O)c2cc(F)ccc2/C1=C\c1ccc(S(C)(=O)=O)cc1` [EXISULIND], the IC50 result is recorded as “Not Active”.
Same read-out and setting: the value for `CC(C)OC(=O)C(C)(C)Oc1ccc(C(=O)c2ccc(Cl)cc2)cc1` [FENOFIBRATE] was “Not Active”.

The series is the same for the next values; noted with them: read-out: IC50.
As to `OCCN1CCN(CCCN2c3ccccc3Sc3ccc(C(F)(F)F)cc32)CC1` [FLUPHENAZINE], the IC50 was determined as 39 nM.

The series is the same for the next values; noted with them: read-out: Ki.
`OCCN1CCN(CCCN2c3ccccc3Sc3ccc(C(F)(F)F)cc32)CC1` [FLUPHENAZINE]: the Ki came to 25 nM.
